Measurements as given in the NIST ThermoML archive (doi:10.1021/je2006117).
Values joined by “and” are separate entries in the source; they are usually repeats but may differ in a detail not shown here. Equal values may be shown once. Numbers after ± are expanded uncertainties.

What was measured:
[1] = mn = molality of the nth substance listed, in mol/kg; settings: 298.15 K, 101 kPa, Liquid; for viscosity: Capillary tube (Ostwald / Ubbelohde) method; for mass density: Vibrating tube method
[2] = refractive index (Na D-line) (dimensionless); mn = molality of the nth substance listed, in mol/kg; settings: 298.15 K, 101 kPa, Liquid, Standard Abbe refractometry
[3] = 298.15 K, Liquid
[4] = refractive index (Na D-line) (dimensionless); settings: 298.15 K; 101.33 kPa; Liquid; Standard Abbe refractometry

## CCC[n+]1ccn(C)c1.[Br-] [1-methyl-3-propylimidazolium bromide] + CN(C)C=O
[1]; m1 = 0.0268
  viscosity: 0.88 ± 0.008 mPa·s
  mass density: 945.94 ± 0.11 kg/m3
[1]; m1 = 0.0444
  viscosity: 0.889 ± 0.008 mPa·s
  mass density: 947.2 ± 0.1 kg/m3
[1]; m1 = 0.0628
  viscosity: 0.897 ± 0.008 mPa·s
  mass density: 948.49 ± 0.11 kg/m3
[1]; m1 = 0.0851
  viscosity: 0.905 ± 0.008 mPa·s
  mass density: 950.04 ± 0.11 kg/m3
[1]; m1 = 0.103
  viscosity: 0.917 ± 0.008 mPa·s
  mass density: 951.26 ± 0.11 kg/m3
[1]; m1 = 0.1256
  viscosity: 0.923 ± 0.008 mPa·s
  mass density: 952.76 ± 0.11 kg/m3
[1]; m1 = 0.1396
  viscosity: 0.936 ± 0.008 mPa·s
  mass density: 953.7 ± 0.11 kg/m3
[1]; m1 = 0.1656
  viscosity: 0.956 ± 0.008 mPa·s
  mass density: 955.41 ± 0.11 kg/m3
[1]; m1 = 0.1826
  viscosity: 0.966 ± 0.008 mPa·s
  mass density: 956.49 ± 0.11 kg/m3
[1]; m1 = 0.2057
  viscosity: 0.975 ± 0.008 mPa·s
  mass density: 957.93 ± 0.11 kg/m3
[2]; m1 = 0.0268
  refractive index: 1.4289 ± 0.0004
[2]; m1 = 0.0444
  refractive index: 1.4296 ± 0.0004
[2]; m1 = 0.0628
  refractive index: 1.4302 ± 0.0004
[2]; m1 = 0.0851
  refractive index: 1.4307 ± 0.0004
[2]; m1 = 0.103
  refractive index: 1.4309 ± 0.0004
[2]; m1 = 0.1256
  refractive index: 1.4312 ± 0.0004
[2]; m1 = 0.1396
  refractive index: 1.4317 ± 0.0004
[2]; m1 = 0.1656
  refractive index: 1.4321 ± 0.0004
[2]; m1 = 0.1826
  refractive index: 1.4328 ± 0.0004
[2]; m1 = 0.2057
  refractive index: 1.4336 ± 0.0004

## CCCCCn1cc[n+](C)c1.[Br-] [1-pentyl-3-methylimidazolium bromide] + CN(C)C=O
[1]; m1 = 0.0201
  viscosity: 0.877 ± 0.008 mPa·s
  mass density: 945.2 ± 0.11 kg/m3
[1]; m1 = 0.0409
  viscosity: 0.89 ± 0.008 mPa·s
  mass density: 946.55 ± 0.11 kg/m3
[1]; m1 = 0.0618
  viscosity: 0.899 ± 0.008 mPa·s
  mass density: 947.88 ± 0.11 kg/m3
[1]; m1 = 0.0853
  viscosity: 0.912 ± 0.008 mPa·s
  mass density: 949.36 ± 0.11 kg/m3
[1]; m1 = 0.1009
  viscosity: 0.925 ± 0.008 mPa·s
  mass density: 950.32 ± 0.11 kg/m3
[1]; m1 = 0.1186
  viscosity: 0.942 ± 0.008 mPa·s
  mass density: 951.39 ± 0.11 kg/m3
[1]; m1 = 0.1433
  viscosity: 0.957 ± 0.008 mPa·s
  mass density: 952.9 ± 0.11 kg/m3
[1]; m1 = 0.161
  viscosity: 0.965 ± 0.008 mPa·s
  mass density: 953.93 ± 0.11 kg/m3
[1]; m1 = 0.1798
  viscosity: 0.982 ± 0.008 mPa·s
  mass density: 955.02 ± 0.11 kg/m3
[1]; m1 = 0.205
  viscosity: 0.991 ± 0.008 mPa·s
  mass density: 956.48 ± 0.11 kg/m3
[2]; m1 = 0.0201
  refractive index: 1.4291 ± 0.0004
[2]; m1 = 0.0409
  refractive index: 1.4297 ± 0.0004
[2]; m1 = 0.0618
  refractive index: 1.4299 ± 0.0004
[2]; m1 = 0.0853
  refractive index: 1.4309 ± 0.0004
[2]; m1 = 0.1009
  refractive index: 1.4312 ± 0.0004
[2]; m1 = 0.1186
  refractive index: 1.4317 ± 0.0004
[2]; m1 = 0.1433
  refractive index: 1.432 ± 0.0004
[2]; m1 = 0.161
  refractive index: 1.4323 ± 0.0004
[2]; m1 = 0.1798
  refractive index: 1.4329 ± 0.0004
[2]; m1 = 0.205
  refractive index: 1.4333 ± 0.0004

## C(=NCCN=Cc1ccccn1)c1ccccn1 [N,N'-bis(2-pyridinylmethylene)-1,2-ethanediamine] + CN(C)C=O
[1]; m1 = 0.0401
  mass density: 945.31 ± 0.8 kg/m3
[1]; m1 = 0.0484
  mass density: 945.37 ± 0.8 kg/m3
[1]; m1 = 0.0728
  mass density: 946.33 ± 0.8 kg/m3
[1]; m1 = 0.0941
  mass density: 946.67 ± 0.8 kg/m3
[1]; m1 = 0.1205
  mass density: 947.34 ± 0.8 kg/m3
[1]; m1 = 0.1508
  mass density: 948.27 ± 0.8 kg/m3
[1]; m1 = 0.1553
  mass density: 949.12 ± 0.8 kg/m3 and 949.25 ± 0.8 kg/m3

## CN(C)C=O [dimethylformamide]
[3]; 101 kPa, Vibrating tube method
  mass density: 943.88 ± 0.11 kg/m3 and 943.99 ± 0.11 kg/m3
[3]; 101.33 kPa
  mass density: 943.88 ± 0.23 kg/m3
[3]; 101.33 kPa, Capillary tube (Ostwald / Ubbelohde) method
  viscosity: 0.8608 ± 0.0068 mPa·s
[4]
  refractive index: 1.4285 ± 0.0004
